Assay results: PubChem BioAssay (NCI)
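Tested at 5 concentrations; 48 h exposure; 96-well plates; endpoints linearly interpolated, else capped at highest concentration. At the TGI there is no net growth.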

Assays:
Assay in all cases: NCI anticancer screen, dose series, 48 h
[1] = tested on: TK-10 renal
[2] = tested on: SNB-19 CNS
[3] = tested on: SF-295 CNS
[4] = tested on: M14 melanoma
[5] = tested on: HT29 colon
[6] = tested on: BT-549 breast
[7] = tested on: HCC-2998 colon
[8] = tested on: OVCAR-5 ovarian
[9] = tested on: EKVX NSCLC
[10] = tested on: OVCAR-4 ovarian
[11] = tested on: HCT-15 colon
[12] = tested on: HS 578T breast
[13] = tested on: SK-MEL-28 melanoma
[14] = tested on: NCI/ADR-RES ovarian
[15] = tested on: SN12C renal
[16] = tested on: MDA-MB-231 breast
[17] = tested on: SR leukemia
[18] = tested on: MDA-N
[19] = tested on: RPMI-8226 leukemia
[20] = tested on: DU-145 prostate

| SMILES | TGI [1] [µM] | TGI [2] [µM] | TGI [3] [µM] | TGI [4] [µM] | TGI [5] [µM] | TGI [6] [µM] | TGI [7] [µM] | TGI [8] [µM] | TGI [9] [µM] | TGI [10] [µM] | TGI [11] [µM] | TGI [12] [µM] | TGI [13] [µM] | TGI [14] [µM] | TGI [15] [µM] | TGI [16] [µM] | TGI [17] [µM] | TGI [18] [µM] | TGI [19] [µM] | TGI [20] [µM] |
| --- | --- | --- | --- | --- | --- | --- | --- | --- | --- | --- | --- | --- | --- | --- | --- | --- | --- | --- | --- | --- |
| Cc1ccc2c(c1)C(=O)/C(=N/Nc1ccc(Cl)cc1)CCO2 | > 100 | > 100 | > 100 | > 100 | > 100 | > 100 | > 100 | > 100 | > 100 | > 100 | > 100 | > 100 | > 100 | > 100 | > 100 | > 100 | > 100 | > 100 | > 100 | > 100 |
| CCN(CC)C1Oc2cc3c(cc2C(c2ccc(OC)cc2)C1C)OCO3 (stereo not drawn) | 56.2 | 83.7 | 63.1 | 51.4 | 34.7 | 67 | 35.3 | 58.9 | 49.9 |  | 98.1 | 48.2 | 50.8 |  | 63 | 49.2 | 27.6 | 65.5 | 38 | 76.4 |
| COC(=O)C(Cc1c[nH]c2ccccc12)N=C1Nc2ccncc2S(=O)(=O)N1c1ccccc1 (stereo not drawn) | > 100 | > 100 | > 100 | > 100 | 44.9 | > 100 | 60.8 | > 100 | > 100 | 75.7 | > 100 | > 100 | > 100 | > 100 | > 100 | > 100 | 42.1 | > 100 | 29.3 | > 100 |
| CC(=O)C(=[N+]=[N-])C(=O)NCC#N | > 10 | > 10 | > 10 | > 10 | > 10 | > 10 | > 10 | > 10 | > 10 | > 10 | > 10 | > 10 | > 10 | > 10 | > 10 | > 10 | > 10 | > 10 | > 10 | > 10 |
| CCC(C)C(C(=O)N/N=C1/SCC(=O)N1c1ccccc1)C(=O)N/N=C1/SCC(=O)N1c1ccccc1 (stereo not drawn) | > 100 | > 100 | > 100 | > 100 | > 100 | > 100 | > 100 | > 100 | > 100 | 33.3 | > 100 | > 100 | 33.9 | > 100 | > 100 | 88.7 | > 100 | 94.6 |  | > 100 |
| CO[C@H]1c2cccc3cccc(c23)[C@@H]1n1[nH]c(=O)n(C(C)(C)C)c1=O | > 100 | > 100 |  | > 100 | > 100 | > 100 | > 100 | > 100 | > 100 | > 100 | > 100 | > 100 | > 100 | > 100 | > 100 | > 100 | > 100 | > 100 | > 100 | > 100 |
| C/C1=C/C(C)CC(C)OC(=O)C(C)NC(=O)C(Cc2ccc(O)c(I)c2)N(C)C(=O)CNC(=O)C(C)C1 (stereo not drawn) |  | > 100 | 1.73 | > 100 | > 100 | 0.322 | 13.2 | > 100 | > 21.9 |  | 11.2 | 0.723 |  | > 77.3 | > 100 | 1.99 |  | > 100 | 0.757 | > 100 |
| ClC1(Cl)C(c2ccccc2)C1c1ccccc1 (stereo not drawn) | > 100 | > 100 | 82.3 | 90.7 |  | 77.4 | 30 | > 100 | 53.1 | > 100 | > 100 | > 100 | > 100 | 30.8 | > 100 | > 100 | 55.4 | 35.2 | 79.8 | > 100 |
| Nc1nc(N)c2cc(Sc3ccc4nc(N)nc(N)c4c3)ccc2n1 | > 100 | > 100 |  | > 100 | > 100 | > 100 | > 100 | > 100 | > 100 | > 100 | > 100 | > 100 | > 100 | > 100 | > 100 | > 100 | > 100 | > 100 | > 100 | > 100 |
| COc1cc(OCc2nc3ccccc3n3cccc23)cc(OC)c1OC | > 88.6 | > 100 | > 100 | > 78.3 | > 100 | > 100 | > 88.3 | > 100 | > 62.7 | > 63 | > 100 | > 100 | > 90.5 | > 80.4 | > 88.9 | > 100 |  | > 100 | 14.6 | > 100 |
| COc1nc(C)nc2sc3c(c12)CCCC3 | > 100 | > 100 | > 100 |  | > 100 | > 100 | > 100 | > 100 | > 100 | > 100 | > 100 | > 100 | > 100 | > 100 | > 100 | > 100 | > 100 | > 100 | > 100 | > 100 |
| CSc1nc(C)c2c(n1)SCC2 | > 10 | > 10 | > 10 | > 10 | > 10 | > 10 |  | > 10 | > 10 | > 10 | > 10 | > 10 | > 10 | > 10 | > 10 | > 10 | > 10 | > 10 | > 10 | > 10 |
| COc1cccc(OC/C(N=Cc2cccnc2)=N/NC(=O)c2ccncc2)c1 | > 100 | > 100 | > 100 | > 100 | > 100 | > 100 | > 100 | > 100 | > 100 | > 100 | > 100 | > 100 | > 100 | > 100 |  | > 100 |  | > 100 | > 100 | > 100 |
| CN1C2CCC1CC(CCOC(c1ccc(F)cc1)c1ccc(F)cc1)C2 (stereo not drawn) | 28.8 | 41.6 | 30.8 | 32.5 | 19.1 | 31.1 |  | 36.7 | 27.7 | 38.8 | 32.3 | 44.5 | 31.7 | 36.5 | 38.2 | 29.7 | 38.2 | 37.5 | 44.4 | 33.5 |
| O=C1CC(CC(O)[C@@H]2CCCC[C@@H]2O)CC(=O)N1c1ccccc1 (stereo partly drawn) | > 100 | > 100 | > 100 | > 100 | > 100 | > 100 | > 100 | > 100 |  | > 100 | > 100 | > 100 | > 100 | > 100 | > 100 | > 100 | > 100 | > 100 | > 100 | > 100 |
| Cc1oc2c(c1C)S(=O)(=O)C(C#N)C(c1ccccc1)N2 (stereo not drawn) | > 100 | > 100 | > 100 | > 100 | > 100 | > 100 | > 100 | > 100 | > 100 | > 100 | > 100 | > 100 | > 100 | > 100 | > 100 | > 100 |  | 81.5 |  | > 100 |
| COc1ccc2nc3c([N+](=O)[O-])ccc4c3c(c2c1)N=CN4CCCN(C)C | 6.51 | 22.2 | 18.2 | 23.6 | 12.5 | 23.5 | 6.54 | 25.5 | 16.2 |  | 15.2 | 27.5 | 31.5 | 18 | 11.5 | 8.27 | 1.03 | 21.8 | 0.772 | 13.9 |
| COC(=O)c1cc2c(o1)Sc1ccccc1NC2=O | > 100 | > 100 | > 100 | > 100 | > 100 | > 100 | > 100 | > 100 |  | > 100 | > 100 | 63.8 | > 100 | > 100 | > 100 | > 100 | > 100 | > 100 | > 100 | > 100 |
| O=C1CC(=O)NC(=NN2C(=O)/C(=C/C(=O)c3ccco3)N=C2c2ccccc2)N1 | > 100 |  | > 100 | > 100 | > 100 | > 100 | > 100 | > 100 |  | > 100 | > 100 | > 100 | > 100 | > 100 | > 100 | > 100 | 41.3 | > 100 |  | > 100 |
| Cc1csc2nc3c(cnn3C)c(=S)n12 | > 100 | > 100 | > 100 | > 100 | > 100 | > 100 | > 100 | > 100 | > 100 | > 100 | > 100 | > 100 | > 100 | > 100 | > 100 | > 10 | > 100 | > 100 | > 100 |  |
| Cc1c(C)c2c(c(N)c1C#N)C(=O)N(CCc1ccccc1)C2=O | > 100 | > 100 | > 100 | > 100 |  | > 100 | > 100 | > 100 | > 100 | > 100 | > 100 | > 100 | > 100 | > 100 | > 100 | > 100 | > 100 | > 100 | > 100 | > 100 |
| O=C(c1cc(Cl)cc(Cl)c1)N(C(=O)N1CCN(c2ccccc2)CC1)c1ccccc1 | > 100 | > 100 | > 100 | > 100 | > 100 | > 100 | > 100 | > 100 | > 100 | > 100 | > 100 | > 100 | > 100 | > 100 | > 100 | > 100 |  | 30.3 |  | > 100 |
| CCOC(=O)C(C(=O)OCC)=C1NC2(c3ccccc3Nc3ccc(C)cc32)C(C#N)S1 (stereo not drawn) | 31.1 | 30.8 | 58.7 | 17.6 | 15.1 | 29.5 | 11.3 | 27.7 | 39.5 | 40.7 | 29.5 | 46.5 | 70.9 | 25.7 | 8.68 |  | 4.99 | 46.3 | 4.63 | 43.8 |
| COc1ccc2cc(Oc3ccc(Cl)cc3)c(=O)oc2c1 | > 100 | > 100 | > 100 | > 100 | > 100 | > 100 |  | > 100 | > 100 | > 100 | > 100 | > 100 | > 100 |  | > 100 | > 100 | > 100 | > 100 | > 100 | > 100 |
| C[C@]12C[C@H](c3ccccc3)Nc3ccccc3N1C(c1ccccc1)=NO2 | > 100 | > 100 | > 100 | > 100 | > 100 | > 100 | > 100 | > 100 | 92.6 | > 100 | > 100 | > 100 |  | > 100 | > 100 | > 100 | 26.6 | > 100 | > 100 | > 100 |
